Assay results as given in patent US20070225356A1, “Preventive and/or Therapeutic Agent for Chronic Sinusitis” (Kyowa Hakko Kogo Co., Ltd, priority 2004, published 2007).
Where a name gives a salt, the structure may show the parent alone.

Tests used:
[1] = tested on: patient diagnosed as chronic sinusitis; assay: Test Example 1: effect of olopatadine hydrochloride on chronic sinusitis, one patient, CT and subjective symptoms; assay type: in vivo, human; conditions: for improvement of symptoms (polyp, headache, right nasal obstruction, purulent nasal discharge, closure of right olfactory cleft): administration of Klaricid and Neuzym for 2 months or more, same patient, before olopatadine hydrochloride
Procedure: A patient diagnosed as chronic sinusitis was orally daily administered with olopatadine hydrochloride (Allelock™ 5 mg tablet; Kyowa Hakko Kogyo Co., Ltd.) alone in a dose of one tablet two times (after breakfast and before bedtime) a day (10 mg/day) everyday. Before the administration of olopatadine hydrochloride and 2 months after the administration, computed tomography (CT) was performed to observe changes in symptoms. […] In administration of Klaricid™ (general name: clarithromycin) and Neuzym™ (general name: lysozyme chloride) for 2 months or more, improvement of these symptoms were not observed.

allergic rhinitis = conditions: Phase III test; cited from earlier work
[2] = tested on: experimental allergic rhinitis model; conditions: guinea pigs; cited from earlier work
[3] = tested on: patients with chronic sinusitis complicated with perennial allergic rhinitis; assay: Test Example 2: degree of improvement in symptoms, 24 patients, eighth week; assay type: in vivo, human; conditions: oral 10 mg/day, other medicines may be combined
Procedure: Patients (24 patients, average age 33.8 years old, duration 61.5±59.7 days) with chronic sinusitis complicated with perennial allergic rhinitis were orally administered with olopatadine hydrochloride (Allelock™ 5 mg tablet; Kyowa Hakko Kogyo Co., Ltd.) in a dose of one tablet two times-(after breakfast and before bedtime) a day (10 mg/day) everyday. In this case, Mucodyne™ (general name: carbocysteine), Dasen™ (general name: serrapeptase), Polaramine™ (general name: d-chlorpheniramine maleate), Klaricid™ (general name: clarithromycin) or the like may be combined. The combined use with such a medicine was filled in a survey sheet. Such a medicine had been given for treatment before this test. At the eighth week of the administration, degrees of improvement in 1) sneezing, 2) nasal drip, 3) nasal obstruction, 4) interference with daily life, 5) mucosal swelling, 6) headache and head heaviness, and 7) postnasal drip were examined for each patient. The degree of each symptom determined with reference according to “Nasal Allergy Diagnosis Guideline for 2002 (Revised Fourth Edition)”, and the degree of improvement in each symptom was evaluated for each patient having a corresponding symptom before the administration on the basis of the four stages, i.e., disappearance, significant improvement, improvement, and no change. In the case of more than improvement (disappearance, significant improvement, or improvement), the rate of improvement was evaluated as “effective” and calculated as a rate (%) of an effective number of patients relative to the number of patients (number of cases) having a corresponding symptom before administration.

[4] = tested on: patient diagnosed as chronic sinusitis; assay: Test Example 3: effect 2 on chronic sinusitis, one patient, 21-day schedule, plain radiography; assay type: in vivo, human
Procedure: A patient diagnosed as chronic sinusitis was administered with olopatadine hydrochloride (Allelock™ 5 mg tablet; Kyowa Hakko Kogyo Co., Ltd.) according to the prescription schedule below (21 days in total). 1. First 7 Days (Co-Administration) Three medicines were dosed together according to the following prescription. Also, frequently used SG granules were also prescribed. Olopatadine hydrochloride 5 mg tablet: oral dose of one tablet two times a day for 7 days (10 mg/day) Gatiflo™ (general name: gatifloxacin) 200 mg tablet: oral dose of one tablet two times a day for 4 days (400 mg/day) Mucodyne™ (general name: carbocysteine) 500 mg tablet: oral dose of one tablet three times a day for 7 days (1500 mg/day) 2. Next 14 Days (Single Administration of Olopatadine Hydrochloride) Furthermore, olopatadine hydrochloride was given according to the following prescription: Olopatadine hydrochloride 5 mg tablet: oral dose of one tablet two times a day for 14 days (10 mg/day) Plain radiography was conducted before the administration of the above medicines and 21 days after the administration to observe changes in the symptoms.

[5] = tested on: patient diagnosed as chronic sinusitis; assay: Test Example 4: effect 3 on chronic sinusitis, one patient, 35-day schedule, plain radiography; assay type: in vivo, human
Procedure: A patient diagnosed as chronic sinusitis was administered with olopatadine hydrochloride (Allelock™ 5 mg tablet; Kyowa Hakko Kogyo Co., Ltd.) according to the prescription schedule below (35 days in total). 1. First 7 Days (Co-Administration) Three medicines were dosed together according to the following prescription. Olopatadine hydrochloride 5 mg tablet: oral dose of one tablet two times a day for 7 days (10 mg/day) Gatiflo™ (general name: gatifloxacin) 200 mg tablet: oral dose of one tablet two times a day for 4 days (400 mg/day) Mucodyne™ (general name: carbocysteine) 500 mg tablet: oral dose of one tablet three times a day for 7 days (1500 mg/day) 2. Next 14 Days (Co-Administration) Two medicines were further dosed together according to the following prescription. Olopatadine hydrochloride 5 mg tablet: oral dose of one tablet two times a day for 14 days (10 mg/day) Mucodyne™ 500 mg table: oral dose of one tablet three times a day for 14 days (1500 mg/day) 3. Next 14 Days (Single Administration) Furthermore, olopatadine hydrochloride was given according to the following prescription: Olopatadine hydrochloride 5 mg table: oral dose of one tablet two times a day for 14 days (10 mg/day) Plain radiography was conducted before the administration of the above medicines and 35 days after the administration to observe changes in the symptoms.

[6] = tested on: patient with chronic sinusitis complicated with allergic rhinitis; assay: Test Example 5: transitions of symptoms, CT and plain radiography, one patient; assay type: in vivo, human; parameters: key to Color of inferior turbinate mucosa (objective symptom grade): +++: (Pale); ++: (Red); +: (Light red); −: (Normal); key to Postnasal drip (subjective symptom grade): +++: Always; ++: Frequently; +: Sometimes; −: No
Procedure: A patient with chronic sinusitis complicated with allergic rhinitis was orally administered with olopatadine hydrochloride (Allelock™ 5 mg tablet; Kyowa Hakko Kogyo Co., Ltd.) alone in a dose of one tablet two times a day for 2 months (10 mg/day). The patient had developed serious sneezing, nasal obstruction, and postnasal drip about 5 and half years ago. The patient discontinued treatment when the subjective symptoms were relieved by intermittent medication. However, improvements in the symptoms were not observed before the start of treatment by administration of the above olopatadine hydrochloride. In addition, in a nasal discharge eosinophil test (an intermediate state between clusters of eosinophils and observable weak dispersion of eosinophils in nasal discharge) and a scratch test (house dust, candida, cedar, and orchard grass), the patient was positive before the start of administration, and the chronic sinusitis of the patient was recognized to be complicated with allergic rhinitis. […] The degree of each symptom was decided on the basis of Tables 3 and 4 in reference to “Nasal Allergy Diagnosis Guideline for 2002 (Revised Fourth Edition)”. In addition, computed tomography (CT) was conducted before the administration of olopatadine hydrochloride and 1 month after and 2 months after the administration, and plain radiography (Waters method) was conducted before the administration of olopatadine hydrochloride and 2 months after the administration to observe changes in the symptoms.

[7] = oral 10 mg/day alone for 2 months, one patient
[8] = first 7 days, co-administration with Gatiflo (gatifloxacin) and Mucodyne (carbocysteine), oral 10 mg/day
[9] = next 14 days, single administration, oral 10 mg/day
[10] = next 14 days, co-administration with Mucodyne (carbocysteine), oral 10 mg/day
[11] = Two weeks after administration, oral 10 mg/day alone, before administration ++
[12] = single administration for 2 months, oral 10 mg/day

Molecule: CC[C@H]1OC(=O)[C@H](C)[C@@H](O[C@H]2C[C@@](C)(OC)[C@@H](O)[C@H](C)O2)[C@H](C)[C@@H](O[C@@H]2O[C@H](C)C[C@H](N(C)C)[C@H]2O)[C@](C)(OC)C[C@@H](C)C(=O)[C@H](C)[C@@H](O)[C@]1(C)O [Klaricid, clarithromycin]
- improvement of symptoms (polyp, headache, right nasal obstruction, purulent nasal discharge, closure of right olfactory cleft) [1]: not observed

Molecule: CN(C)CC/C=C1/c2ccccc2COc2ccc(CC(=O)O)cc21 [compound 1, (Z)-11-(3-dimethylaminopropylidene)-6,11-dihydrodibenzo[b,e]oxepine-2-acetic acid]
- nasal congestion of allergic rhinitis (allergic rhinitis): highly improve
- nasal congestion reaction [2]: inhibitory action

Molecule: CN(C)CC/C=C1/c2ccccc2COc2ccc(CC(=O)O)cc21 [olopatadine hydrochloride]
- polyp and soft-tissue density mass which filled the right nasal cavity (CT image) [1, 7]: substantially disappeared
- soft-tissue density area which filled the right ethmoidal, right sphenoidal and right frontal sinus (CT image) [1, 7]: substantially disappeared
- subjective symptoms such as nasal drip and headache [1, 7]: disappeared
- swelling of the inside wall toward the nasal cavity side, closure of the right olfactory cleft due to mucosal thickening (CT image) [1, 7]: relieved
- Postnasal drip: Rate of improvement ([3]; 3 cases): 100%
- Postnasal drip: patients with Disappearance ([3]; 3 cases): 3
- Postnasal drip: patients with Improvement ([3]; 3 cases): 0
- Postnasal drip: patients with No change ([3]; 3 cases): 0
- Postnasal drip: patients with Significant improvement ([3]; 3 cases): 0
- Headache, head heaviness: Rate of improvement ([3]; 5 cases): 100%
- Headache, head heaviness: patients with Disappearance ([3]; 5 cases): 5
- Headache, head heaviness: patients with Improvement ([3]; 5 cases): 0
- Headache, head heaviness: patients with No change ([3]; 5 cases): 0
- Headache, head heaviness: patients with Significant improvement ([3]; 5 cases): 0
- Sneezing: Rate of improvement ([3]; 12 cases): 91.7%
- Sneezing: patients with Disappearance ([3]; 12 cases): 8
- Sneezing: patients with Improvement ([3]; 12 cases): 3
- Sneezing: patients with No change ([3]; 12 cases): 1
- Sneezing: patients with Significant improvement ([3]; 12 cases): 0
- Nasal drip: Rate of improvement ([3]; 15 cases): 73.3%
- Nasal drip: patients with Disappearance ([3]; 15 cases): 4
- Nasal drip: patients with Improvement ([3]; 15 cases): 5
- Nasal drip: patients with No change ([3]; 15 cases): 4
- Nasal drip: patients with Significant improvement ([3]; 15 cases): 2
- Interference with daily life: Rate of improvement ([3]; 16 cases): 87.5%
- Interference with daily life: patients with Disappearance ([3]; 16 cases): 3
- Interference with daily life: patients with Improvement ([3]; 16 cases): 8
- Interference with daily life: patients with No change ([3]; 16 cases): 2
- Interference with daily life: patients with Significant improvement ([3]; 16 cases): 3
- Mucosal Swelling: Rate of improvement ([3]; 16 cases): 87.5%
- Mucosal Swelling: patients with Disappearance ([3]; 16 cases): 0
- Mucosal Swelling: patients with Improvement ([3]; 16 cases): 13
- Mucosal Swelling: patients with No change ([3]; 16 cases): 2
- Mucosal Swelling: patients with Significant improvement ([3]; 16 cases): 1
- Nasal obstruction: Rate of improvement ([3]; 16 cases): 87.5%
- Nasal obstruction: patients with Disappearance ([3]; 16 cases): 4
- Nasal obstruction: patients with Improvement ([3]; 16 cases): 7
- Nasal obstruction: patients with No change ([3]; 16 cases): 2
- Nasal obstruction: patients with Significant improvement ([3]; 16 cases): 3
- shadows in the plain radiograph indicating sinusitis inflammation in the ethmoidal sinus and right and left maxillary sinuses ([4]; after a total of 21 days (7 days co-administration, 14 days single)): completely disappeared
- cheek pains (facial pain) and headache [4, 8]: disappeared
- nasal symptoms such as purulent nasal discharge and nasal obstruction [4, 8]: improved
- nasal mucosal swelling and the like [4, 9]: unobserved
- nasal symptoms such as purulent nasal discharge and nasal obstruction [4, 9]: disappeared
- shadows in the plain radiograph indicating sinusitis inflammation in the ethmoidal sinus and right and left maxillary sinuses ([5]; after a total of 35 days): completely disappeared
- left cheek pain (facial pain) and malaise [5, 8]: disappeared
- postnasal drip [5, 8]: not improved
- purulent nasal discharge [5, 8]: decreased and substantially disappeared
- all subjective symptoms ([5]; last 14 days, single administration, oral 10 mg/day): disappeared
- nasal mucosal swelling and the like [5, 10]: disappeared
- nasal symptoms such as purulent nasal discharge and postnasal drip [5, 10]: disappeared
- Color of inferior turbinate mucosa (objective symptom grade) ([6]; One month after administration, oral 10 mg/day alone, before administration ++): −
- Color of inferior turbinate mucosa (objective symptom grade) [6, 11]: −
- Postnasal drip (subjective symptom grade) [6, 11]: +
- mucosal swelling in the ethmoidal sinus and the maxillary sinus (CT image) ([6]; single administration for 1 month, oral 10 mg/day): significantly relieved
- mucosal swelling in the ethmoidal sinus and the maxillary sinus (CT image) [6, 12]: substantially disappeared
- shadows observed in the maxillary sinus indicating inflammation of chronic sinusitis (plain radiograph) [6, 12]: disappeared

Molecule: lysozyme chloride [Neuzym]
- improvement of symptoms (polyp, headache, right nasal obstruction, purulent nasal discharge, closure of right olfactory cleft) [1]: not observed
